Results as given in the supplement of paper PMC10307832.

Tests used:
Assay in all cases: relative viability (nuclei count vs DMSO), 5 days (fraction); higher = more cells survive
Shikonin + Pictilisib = compound: CC(C)=CC[C@@H](O)C1=CC(=O)c2c(O)ccc(O)c2C1=O [Shikonin] + CS(=O)(=O)N1CCN(Cc2cc3nc(-c4cccc5[nH]ncc45)nc(N4CCOCC4)c3s2)CC1 [Pictilisib] (partner 1 µM)
In short: (§1)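 Relative viability is defined as nuclei in treated wells over nuclei in vehicle wells. Duplicate plates were run and medians reported. Lung cancer cell lines in 1536-well plates were dosed by pin tool one day after seeding, with one drug or with a fixed anchor-drug dose plus five library-drug doses (not always all listed) in √10 steps, and nuclei were counted after 5 days.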

[1] = compound: CC(C)N(CCCNC(=O)Nc1ccc(C(C)(C)C)cc1)C[C@H]1O[C@@H](n2ccc3c(N)ncnc32)[C@H](O)[C@@H]1O + NC(=O)Nc1cc(-c2cccc(F)c2)sc1C(=O)N[C@H]1CCCNC1 [AZD7762] (partner 0.2 µM)
In short: as §1

[2] = compound: CC(C)N(CCCNC(=O)Nc1ccc(C(C)(C)C)cc1)C[C@H]1O[C@@H](n2ccc3c(N)ncnc32)[C@H](O)[C@@H]1O + CC(=O)Nc1cccc(-n2c(=O)n(C3CC3)c(=O)c3c(Nc4ccc(I)cc4F)n(C)c(=O)c(C)c32)c1 [Trametinib] (partner 0.02 µM)
In short: as §1

Shikonin + Decitabine = compound: CC(C)=CC[C@@H](O)C1=CC(=O)c2c(O)ccc(O)c2C1=O [Shikonin] + Nc1ncn([C@H]2C[C@H](O)[C@@H](CO)O2)c(=O)n1 [Decitabine] (partner 2 µM)
In short: as §1

Cell Line	relative viability (Shikonin + Pictilisib; first compound 0.01 µM)	relative viability (Shikonin + Pictilisib; first compound 0.1 µM)	relative viability (Shikonin + Pictilisib; first compound 0.3162 µM)	relative viability (Shikonin + Pictilisib; first compound 1 µM)	relative viability ([1]; first compound 0.08 µM)	relative viability ([1]; first compound 0.253 µM)	relative viability ([1]; first compound 0.8 µM)	relative viability ([1]; first compound 2.53 µM)	relative viability ([1]; first compound 8 µM)	relative viability ([2]; first compound 0.08 µM)	relative viability ([2]; first compound 0.253 µM)	relative viability ([2]; first compound 0.8 µM)	relative viability ([2]; first compound 2.53 µM)	relative viability ([2]; first compound 8 µM)	relative viability (Shikonin + Decitabine; first compound 0.01 µM)	relative viability (Shikonin + Decitabine; first compound 0.1 µM)	relative viability (Shikonin + Decitabine; first compound 0.3162 µM)	relative viability (Shikonin + Decitabine; first compound 1 µM)
HCC-78	0.185	0.234	0.188	0.249	0.613	0.519	0.583	0.576	0.64	0.716	0.867	0.804	0.586	0.736	0.71	0.638	0.721	0.732
HCC-366	0.164	0.137	0.165	0.127	0.208	0.237	0.277	0.104	0.249	0.264	0.36	0.325	0.344	0.287	0.34	0.381	0.37	0.367
HCC-827	1.12	0.786	1.03	0.871	0.259	0.252	0.403	0.203	0.242	0.499	0.473	0.572	0.537	0.505	0.326	0.29	0.33	0.329
HOP-62	0.714	1.09	0.933	0.62	0.681	0.51	0.517	0.777	0.322	0.349	0.432	0.316	0.347	0.38	0.24	0.222	0.205	0.212
IA-LM	0.363	0.364	0.337	0.305														
NCI-H520		0.393	0.263	0.348						0.681	0.513	0.599	0.667	0.695	0.47	0.598	0.454	0.401
NCI-H522					0.891	0.794	0.806	0.785	0.886	0.633	0.763	0.824	0.798	0.845	0.62	0.763	0.644	0.553
NCI-H661	0.372	0.427	0.39	0.38						0.544	0.551	0.551	0.675	0.619	0.51	0.552	0.572	0.529
NCI-H1299	0.76	1.08	0.711	0.429														
NCI-H1563	0.629	0.719	0.675	0.566														
NCI-H1648					0.656	0.812	0.525	0.645	0.707	0.424	0.522	0.406	0.419	0.455	0.481		0.526	0.532
NCI-H1650	0.682	0.684	0.481	0.571						0.686	0.521	0.219	0.645	0.441	0.379	0.355	0.424	0.389
NCI-H1703	0.26	0.238	0.206	0.205	0.145		0.137	0.105	0.114									
NCI-H2009	0.817	1.13	0.671	0.187						0.272	0.244	0.301	0.255	0.296	0.335	0.399	0.399	0.222
NCI-H2023	0.225	0.31	0.223	0.257						0.536	0.579	0.559	0.495	0.459	0.201	0.251	0.236	0.225
NCI-H2228	0.344	0.438	0.465	0.252						0.631	0.375	0.388	0.52	0.526				
NCI-H2342					0.454	0.535	0.455	0.505	0.397	0.781	0.81	0.692	0.656	0.826	0.723	0.72	0.74	0.748
SK-LU-1	0.511	0.541	0.442	0.616						0.567	0.469	0.513	0.501	0.428	0.631	0.688	0.59	0.635
SK-MES-1	0.352	0.392	0.413	0.368						0.537	0.63	0.589	0.553	0.537	0.323	0.417	0.371	0.426
SW 900					0.718	0.529		0.564	0.554	0.734	0.78		0.766	0.717	0.373	0.536	0.395	0.396
SW 1573	0.616	0.604	0.558	0.532						0.591	0.565	0.588	0.67	0.559	0.446	0.686	0.261	0.135
